# Measured values taken from US20240182513A1, “SEPARATION OF METAL IONS FROM A SAMPLE USING GLYCOLIPIDS” (ARIZONA BOARD OF REGENTS ON BEHALF OF THE UNIVERSITY OF …, priority 2021, published 2024).
# Tests used:
# [1] = Example 2.1 rhamnolipid precipitation, filtration, centrifugation: lanthanum; settings: for Treatment 2: Rhamnolipid and Filtration Cf / Treatment 3: Rhamnolipid and Centrifugation Cc / Treatment 1: Rhamnolipid Only Cr: lanthanum concentration after treatment; for Treatment 2: Rhamnolipid and Filtration (Rf) efficiency of removal / Treatment 1: Rhamnolipid Only (Rr) efficiency of removal / Treatment 3: Rhamnolipid and Centrifugation (Rc) efficiency of removal: lanthanum
# Procedure: (§1) Structural variants of synthetic glycolipids were used to show the effect of the number and length of the hydrophobic tail(s) on rhamnolipid as a chemical precipitant. […] Solutions (10 mM) were made using nanopure water (≥18 MΩ-cm) then adjusted to a pH of 6.9±0.05 with HNO3 and NaOH. These solutions were made in advance and stored in the cold room for up to one month. They were brought to room temperature before each experiment.
# (§2) Three metals were tested for binding with rhamnolipid. Lead as […] (Fisher Scientific, Waltham, MA, 99% purity), was chosen to represent a metal with high rhamnolipid-metal conditional stability constant; lanthanum as La(NO3)3 6(H2O) (Sigma-Aldrich, St. Louis, MO, 99.99% purity) was chosen as a representative REE; and magnesium as Mg(NO3)2 6(H2O) (Sigma-Aldrich, St. Louis, MO, 99% purity) was chosen to represent a metal with a low rhamnolipid-metal conditional stability constant (Hogan et al., 2017). Metal solutions (5 mM) were made using nanopure water (≥18 MΩ-cm) in 20 ml glass scintillation vials. All solutions were used within 15 min to ensure minimal adsorption to the glass vial.
# (§3) Three glycolipid-based treatments were evaluated to remove metal from solution: (1) the addition of glycolipid with no further treatment (gravitational precipitation), (2) the addition of a glycolipid followed by filtration or (3) the addition of a glycolipid followed by centrifugation. Each metal (Pb, La, and Mg) was evaluated separately with each of the glycolipid structures. For each experiment, a metal solution was mixed with a glycolipid solution in a 1.7 ml reaction tube at varying molar ratios of glycolipid to metal: 0:1 (glycolipid-free control), 2:1, 5:1, and 10:1. The reactions were mixed in the order of nanopure water (≥18 MΩ-cm), glycolipid solution (10 mM), then metal solution (5 mM). The metal and glycolipid solutions were continuously stirred as they were aliquoted into the reaction tubes. The experiment was performed in triplicate.
# (§4) The reaction tubes were mixed overnight (16 to 24 h) and then three samples were collected from each tube to measure the effect of each of the three treatments: a glycolipid only treatment sample, a filtration treatment sample, and a centrifugation treatment sample. Briefly, for the glycolipid only treatment samples all tubes were vortexed for approximately 5 sec immediately before removing 0.1 ml into a dilution tube of 2% trace metal grade nitric acid (12 to 14 ml) to minimize the settling of particles. For the filtration samples each reaction tube was vortexed for 5 sec and then a 0.6 ml aliquot was collected with a 1 ml syringe. A GHP acrodisc disk filter (hydrophilic polypropylene membrane, 0.45 μm pore size, 25 mm disc diameter) from Pall Life Sciences (Port Washington, New York) was then placed onto the end of the syringe and the solution was pushed through the filter. The void space in the disk filter holds approximately 0.5 ml, therefore around 0.1 ml of filtrate was collected into a dilution tube. For the centrifugation sample, the remaining solution was centrifuged at 10,000 RCF for 15 min. Approximately 0.1 ml of the supernatant was aliquoted into a dilution tube. Following collection, all samples were taken for metal analysis using ICP-MS.
# [2] = Example 2.1 rhamnolipid precipitation, filtration, centrifugation: magnesium; settings: for Treatment 2: Rhamnolipid and Filtration Cf / Treatment 3: Rhamnolipid and Centrifugation Cc / Treatment 1: Rhamnolipid Only Cr: magnesium concentration after treatment; for Treatment 1: Rhamnolipid Only (Rr) efficiency of removal / Treatment 2: Rhamnolipid and Filtration (Rf) efficiency of removal / Treatment 3: Rhamnolipid and Centrifugation (Rc) efficiency of removal: magnesium
# Procedure: as §1, §2, §3, §4
# [3] = Example 2.1 rhamnolipid precipitation, filtration, centrifugation: lead; settings: for Treatment 2: Rhamnolipid and Filtration Cf / Treatment 3: Rhamnolipid and Centrifugation Cc / Treatment 1: Rhamnolipid Only Cr: lead concentration after treatment; for Treatment 2: Rhamnolipid and Filtration (Rf) efficiency of removal / Treatment 3: Rhamnolipid and Centrifugation (Rc) efficiency of removal / Treatment 1: Rhamnolipid Only (Rr) efficiency of removal: lead
# Procedure: as §1, §2, §3, §4
# [4] = molar ratio rhamnolipid:lanthanum 2 to 1
# [5] = molar ratio rhamnolipid:magnesium 2 to 1
# [6] = molar ratio rhamnolipid:lead 2 to 1
smiles,measurement,setting,value
CCCC(CC(=O)O)OC1O[C@@H](C)[C@H](O)[C@@H](O)[C@H]1O (stereo partly drawn) [Rha C6],Treatment 2: Rhamnolipid and Filtration Cf,[1]; molar ratio 2 to 1,0.143 ± 0.062 mmol/L
same,Treatment 3: Rhamnolipid and Centrifugation Cc,[1]; molar ratio 2 to 1,0.324 ± 0.018 mmol/L
same,Treatment 1: Rhamnolipid Only Cr,[1]; molar ratio 5 to 1,0.282 ± 0.026 mmol/L
same,Treatment 2: Rhamnolipid and Filtration Cf,[1]; molar ratio 5 to 1,0.106 ± 0.026 mmol/L
same,Treatment 3: Rhamnolipid and Centrifugation Cc,[1]; molar ratio 5 to 1,0.320 ± 0.024 mmol/L
same,Treatment 1: Rhamnolipid Only Cr,[1]; molar ratio 10 to 1,0.332 ± 0.040 mmol/L
same,Treatment 2: Rhamnolipid and Filtration Cf,[1]; molar ratio 10 to 1,0.114 ± 0.064 mmol/L
same,Treatment 3: Rhamnolipid and Centrifugation Cc,[1]; molar ratio 10 to 1,0.294 ± 0.010 mmol/L
same,Treatment 1: Rhamnolipid Only Cr,[1]; [4],0.325 ± 0.026 mmol/L
same,Treatment 2: Rhamnolipid and Filtration (Rf) efficiency of removal,[1]; molar ratio 2 to 1,(51.8%)
same,Treatment 1: Rhamnolipid Only (Rr) efficiency of removal,[1]; molar ratio 5 to 1,(5.2%)
same,Treatment 2: Rhamnolipid and Filtration (Rf) efficiency of removal,[1]; molar ratio 5 to 1,(64.4%)
same,Treatment 2: Rhamnolipid and Filtration (Rf) efficiency of removal,[1]; molar ratio 10 to 1,(61.6%)
same,Treatment 3: Rhamnolipid and Centrifugation (Rc) efficiency of removal,[1]; molar ratio 10 to 1,(1.1%)
same,Treatment 2: Rhamnolipid and Filtration Cf,[2]; molar ratio 2 to 1,0.202 ± 0.016 mmol/L
same,Treatment 3: Rhamnolipid and Centrifugation Cc,[2]; molar ratio 2 to 1,0.265 ± 0.010 mmol/L
same,Treatment 1: Rhamnolipid Only Cr,[2]; molar ratio 5 to 1,0.248 ± 0.013 mmol/L
same,Treatment 2: Rhamnolipid and Filtration Cf,[2]; molar ratio 5 to 1,0.178 ± 0.020 mmol/L
same,Treatment 3: Rhamnolipid and Centrifugation Cc,[2]; molar ratio 5 to 1,0.255 ± 0.001 mmol/L
same,Treatment 1: Rhamnolipid Only Cr,[2]; molar ratio 10 to 1,0.258 ± 0.011 mmol/L
same,Treatment 2: Rhamnolipid and Filtration Cf,[2]; molar ratio 10 to 1,0.165 ± 0.001 mmol/L
same,Treatment 3: Rhamnolipid and Centrifugation Cc,[2]; molar ratio 10 to 1,0.272 ± 0.016 mmol/L
same,Treatment 1: Rhamnolipid Only Cr,[2]; [5],0.247 ± 0.014 mmol/L
same,Treatment 1: Rhamnolipid Only (Rr) efficiency of removal,[2]; molar ratio 2 to 1,(7.6%)
same,Treatment 2: Rhamnolipid and Filtration (Rf) efficiency of removal,[2]; molar ratio 2 to 1,(24.5%)
same,Treatment 3: Rhamnolipid and Centrifugation (Rc) efficiency of removal,[2]; molar ratio 2 to 1,(0.9%)
same,Treatment 1: Rhamnolipid Only (Rr) efficiency of removal,[2]; molar ratio 5 to 1,(7.3%)
same,Treatment 2: Rhamnolipid and Filtration (Rf) efficiency of removal,[2]; molar ratio 5 to 1,(33.4%)
same,Treatment 3: Rhamnolipid and Centrifugation (Rc) efficiency of removal,[2]; molar ratio 5 to 1,(4.9%)
same,Treatment 1: Rhamnolipid Only (Rr) efficiency of removal,[2]; molar ratio 10 to 1,(3.6%)
same,Treatment 2: Rhamnolipid and Filtration (Rf) efficiency of removal,[2]; molar ratio 10 to 1,(38.2%)
same,Treatment 2: Rhamnolipid and Filtration Cf,[3]; molar ratio 2 to 1,0.115 ± 0.022 mmol/L
same,Treatment 3: Rhamnolipid and Centrifugation Cc,[3]; molar ratio 2 to 1,0.313 ± 0.003 mmol/L
same,Treatment 1: Rhamnolipid Only Cr,[3]; molar ratio 5 to 1,0.329 ± 0.014 mmol/L
same,Treatment 2: Rhamnolipid and Filtration Cf,[3]; molar ratio 5 to 1,0.046 ± 0.017 mmol/L
same,Treatment 3: Rhamnolipid and Centrifugation Cc,[3]; molar ratio 5 to 1,0.322 ± 0.004 mmol/L
same,Treatment 1: Rhamnolipid Only Cr,[3]; molar ratio 10 to 1,0.316 ± 0.008 mmol/L
same,Treatment 2: Rhamnolipid and Filtration Cf,[3]; molar ratio 10 to 1,0.119 ± 0.018 mmol/L
same,Treatment 3: Rhamnolipid and Centrifugation Cc,[3]; molar ratio 10 to 1,0.323 ± 0.005 mmol/L
same,Treatment 1: Rhamnolipid Only Cr,[3]; [6],0.323 ± 0.005 mmol/L
same,Treatment 2: Rhamnolipid and Filtration (Rf) efficiency of removal,[3]; molar ratio 2 to 1,(64.0%)
same,Treatment 3: Rhamnolipid and Centrifugation (Rc) efficiency of removal,[3]; molar ratio 2 to 1,(2.2%)
same,Treatment 2: Rhamnolipid and Filtration (Rf) efficiency of removal,[3]; molar ratio 5 to 1,(85.8%)
same,Treatment 1: Rhamnolipid Only (Rr) efficiency of removal,[3]; molar ratio 10 to 1,(1.4%)
same,Treatment 2: Rhamnolipid and Filtration (Rf) efficiency of removal,[3]; molar ratio 10 to 1,(62.7%)
CCCCCCCC(CC(=O)O)OC1O[C@@H](C)[C@H](O)[C@@H](O)[C@H]1O (stereo partly drawn) [Rha C10],Treatment 2: Rhamnolipid and Filtration Cf,[1]; molar ratio 2 to 1,0.096 ± 0.025 mmol/L
same,Treatment 3: Rhamnolipid and Centrifugation Cc,[1]; molar ratio 2 to 1,0.228 ± 0.013 mmol/L
same,Treatment 1: Rhamnolipid Only Cr,[1]; molar ratio 5 to 1,0.246 ± 0.016 mmol/L
same,Treatment 2: Rhamnolipid and Filtration Cf,[1]; molar ratio 5 to 1,0.015 ± 0.010 mmol/L
same,Treatment 3: Rhamnolipid and Centrifugation Cc,[1]; molar ratio 5 to 1,0.088 ± 0.003 mmol/L
same,Treatment 1: Rhamnolipid Only Cr,[1]; molar ratio 10 to 1,0.190 ± 0.004 mmol/L
same,Treatment 2: Rhamnolipid and Filtration Cf,[1]; molar ratio 10 to 1,0.022 ± 0.028 mmol/L
same,Treatment 3: Rhamnolipid and Centrifugation Cc,[1]; molar ratio 10 to 1,0.051 ± 0.010 mmol/L
same,Treatment 1: Rhamnolipid Only Cr,[1]; [4],0.282 ± 0.009 mmol/L
same,Treatment 2: Rhamnolipid and Filtration (Rf) efficiency of removal,[1]; molar ratio 2 to 1,(65.7%)
same,Treatment 3: Rhamnolipid and Centrifugation (Rc) efficiency of removal,[1]; molar ratio 2 to 1,(18.6%)
same,Treatment 1: Rhamnolipid Only (Rr) efficiency of removal,[1]; molar ratio 5 to 1,(12.3%)
same,Treatment 2: Rhamnolipid and Filtration (Rf) efficiency of removal,[1]; molar ratio 5 to 1,(94.6%)
same,Treatment 3: Rhamnolipid and Centrifugation (Rc) efficiency of removal,[1]; molar ratio 5 to 1,(68.7%)
same,Treatment 1: Rhamnolipid Only (Rr) efficiency of removal,[1]; molar ratio 10 to 1,(32.2%)
same,Treatment 2: Rhamnolipid and Filtration (Rf) efficiency of removal,[1]; molar ratio 10 to 1,(92.1%)
same,Treatment 3: Rhamnolipid and Centrifugation (Rc) efficiency of removal,[1]; molar ratio 10 to 1,(81.7%)
same,Treatment 2: Rhamnolipid and Filtration Cf,[2]; molar ratio 2 to 1,0.328 ± 0.036 mmol/L
same,Treatment 3: Rhamnolipid and Centrifugation Cc,[2]; molar ratio 2 to 1,0.497 ± 0.014 mmol/L
same,Treatment 1: Rhamnolipid Only Cr,[2]; molar ratio 5 to 1,0.492 ± 0.007 mmol/L
same,Treatment 2: Rhamnolipid and Filtration Cf,[2]; molar ratio 5 to 1,0.283 ± 0.059 mmol/L
same,Treatment 3: Rhamnolipid and Centrifugation Cc,[2]; molar ratio 5 to 1,0.500 ± 0.008 mmol/L
same,Treatment 1: Rhamnolipid Only Cr,[2]; molar ratio 10 to 1,0.503 ± 0.004 mmol/L
same,Treatment 2: Rhamnolipid and Filtration Cf,[2]; molar ratio 10 to 1,0.317 ± 0.073 mmol/L
same,Treatment 3: Rhamnolipid and Centrifugation Cc,[2]; molar ratio 10 to 1,0.490 ± 0.004 mmol/L
same,Treatment 1: Rhamnolipid Only Cr,[2]; [5],0.486 ± 0.021 mmol/L
same,Treatment 1: Rhamnolipid Only (Rr) efficiency of removal,[2]; molar ratio 2 to 1,(3.1%)
same,Treatment 2: Rhamnolipid and Filtration (Rf) efficiency of removal,[2]; molar ratio 2 to 1,(34.6%)
same,Treatment 3: Rhamnolipid and Centrifugation (Rc) efficiency of removal,[2]; molar ratio 2 to 1,(0.8%)
same,Treatment 1: Rhamnolipid Only (Rr) efficiency of removal,[2]; molar ratio 5 to 1,(1.8%)
same,Treatment 2: Rhamnolipid and Filtration (Rf) efficiency of removal,[2]; molar ratio 5 to 1,(43.6%)
same,Treatment 3: Rhamnolipid and Centrifugation (Rc) efficiency of removal,[2]; molar ratio 5 to 1,(0.2%)
same,Treatment 2: Rhamnolipid and Filtration (Rf) efficiency of removal,[2]; molar ratio 10 to 1,(36.7%)
same,Treatment 3: Rhamnolipid and Centrifugation (Rc) efficiency of removal,[2]; molar ratio 10 to 1,(2.2%)
same,Treatment 3: Rhamnolipid and Centrifugation Cc,[3]; molar ratio 2 to 1,0.320 ± 0.045 mmol/L
same,Treatment 1: Rhamnolipid Only Cr,[3]; molar ratio 5 to 1,0.293 ± 0.006 mmol/L
same,Treatment 2: Rhamnolipid and Filtration Cf,[3]; molar ratio 5 to 1,0.028 ± 0.031 mmol/L
same,Treatment 3: Rhamnolipid and Centrifugation Cc,[3]; molar ratio 5 to 1,0.288 ± 0.002 mmol/L
same,Treatment 1: Rhamnolipid Only Cr,[3]; molar ratio 10 to 1,0.232 ± 0.009 mmol/L
same,Treatment 2: Rhamnolipid and Filtration Cf,[3]; molar ratio 10 to 1,0.001 ± 0.000 mmol/L
same,Treatment 3: Rhamnolipid and Centrifugation Cc,[3]; molar ratio 10 to 1,0.231 ± 0.003 mmol/L
same,Treatment 1: Rhamnolipid Only Cr,[3]; [6],0.320 ± 0.012 mmol/L
same,Treatment 1: Rhamnolipid Only (Rr) efficiency of removal,[3]; molar ratio 2 to 1,(2.7%)
same,Treatment 2: Rhamnolipid and Filtration (Rf) efficiency of removal,[3]; molar ratio 2 to 1,(88.8%)
same,Treatment 3: Rhamnolipid and Centrifugation (Rc) efficiency of removal,[3]; molar ratio 2 to 1,(2.5%)
same,Treatment 1: Rhamnolipid Only (Rr) efficiency of removal,[3]; molar ratio 5 to 1,(10.7%)
same,Treatment 2: Rhamnolipid and Filtration (Rf) efficiency of removal,[3]; molar ratio 5 to 1,(91.6%)
same,Treatment 3: Rhamnolipid and Centrifugation (Rc) efficiency of removal,[3]; molar ratio 5 to 1,(12.2%)
same,Treatment 1: Rhamnolipid Only (Rr) efficiency of removal,[3]; molar ratio 10 to 1,(29.3%)
same,Treatment 2: Rhamnolipid and Filtration (Rf) efficiency of removal,[3]; molar ratio 10 to 1,(99.8%)
same,Treatment 3: Rhamnolipid and Centrifugation (Rc) efficiency of removal,[3]; molar ratio 10 to 1,(29.7%)
